US20260263563A1, “Method of Treatment of a Thoracolumbar Deformity in a Human Subject with Achondroplasia” (Ascendis Pharma Growth Disorders A/S, priority 2023, published 2026)
Read-outs that look alike come from different tables or passages of the source.

Experiments:
[1] = Experimental: A population PK model was used to characterize the sparse PK data.
Blood samples for determination of CNP-38 were acidified immediately after collection, using citrate acid buffer, to stabilize the prodrug in the sample thereby avoiding further liberation of CNP-38 from the prodrug. CNP-38 was determined in plasma (heparin) following protein precipitation and solid phase extraction and analyzed using liquid chromatography and tandem mass spectrometry detection. CNP-38 (38 amino acid peptide) was used as reference material and CNP-38 labelled with deuterium (D30-CNP-38) as internal standard (IS). Positive ions were monitored in multiple-reaction monitoring mode. The quantification was performed using the peak area ratios of analyte versus IS. The calibration curve fitting was done by 1/concentration-weighted linear regression.
During the trial, sparse blood samples were collected at different time points in the dosing interval, and the concentration of free CNP-38 was determined using the methodology described in example 6.
The values are provided as pmol/L CNP-38. […] The lower value in the range is the lowest free CNP-38 concentration, also referred to as the trough level or trough concentration. The number of subjects contributing with observations at the specified time interval are: 4, 8, 10 and 6 for the 6, 20, 50 and 100 μg/kg dose groups, respectively.

[2] = system: prepubertal children with achondroplasia; conditions: for Overall Scoliosis Incidence, Baseline: baseline (prior to treatment)
Description: X-rays (radiographs) were taken from subjects in the placebo group and cohort 4 in the Phase 2 Study trials, including those at the thoracolumbar spine (lateral and anterior-posterior/posterior-anterior (AP/PA)) and lower extremity (AP). The lateral X-rays (taken from the placebo group and the 100 μg/kg (cohort 4 group) at baseline and after 52 weeks of treatment were analyzed.
Methodology: From the spine radiographs, aspects related to spinal stenosis, spinal curvature, and spinal height were measured. To assess the size of the spinal canal in the lumbar region (L1-L5), which is smaller in ACH, interpedicular distance (IPD) and pedicle width (PW) are measured on the anterior-posterior/posterior-anterior (AP/PA) and lateral radiographs, respectively. At each level of the lumbar spine, IPD is measured as the distance between the most medial aspects of the pedicles of the spinal canal, and PW is measured from the posterior vertebral body line to the posterior laminar line. Scoliosis is assessed by measuring Cobb angles in the proximal thoracic, main thoracic, and lumbar regions of the AP/PA spine radiograph. On the lateral spine radiograph, Cobb angles for kyphosis are assessed in the thoracic (TK) and thoracolumbar (TLK) region and for lordosis in the lumbar region (LL). Spinal heights (both thoracic and total) are measured on the AP/PA spine radiograph. • Scoliosis: Cobb angles of the proximal thoracic (T1-T3), main thoracic (T2-L1), and lumbar (L1-L5) regions • Kyphosis: Cobb angles of the thoracic (T5-T12, TK) and thoracolumbar (T10-L2, TLK) regions • Lordosis: Cobb angles of the lumbar (L1-L5, LL) region • Thoracic spine height (T1 to T12) and Total spine height (T1 to S1)
As many of these parameters vary naturally during growth, published normative data from both healthy and ACH populations are being utilized to calculate Z-scores where possible. For spine kyphosis, data from Lee et al., 2012 (Journal of spinal disorders & techniques. 2012; 25(8):E259-63) and Abousamra et al. 2019 (Spine Deform. 2019 January; 7(1):163-170) were used to calculate Z-scores based on data from healthy and ACH children.
A decrease of the (Posterior Height/Middle Width) ratio is indicative of a normalization of vertebral morphology.

[3] = 50 and 100 μg/kg vs placebo, 52 weeks
[4] = cohorts 3 and 4 vs placebo, 52 weeks, initial data
[5] = single patient, after 52 weeks treatment
[6] = single patient, after 52 weeks treatment (100 μg/kg/week)
[7] = single patient, week 52, 100 μg/kg/week

## Navepegritide [Compound (1)]
[1]; Cohort 2, 20 μg/kg, WEEK 39, 273.47 days
  Preliminary mean free CNP level: 5.19 pmol/L
[1]; Cohort 3, 50 μg/kg, WEEK 0, 1.00 days
  Preliminary mean free CNP level: 10.58 pmol/L
[1]; Cohort 3, 50 μg/kg, WEEK 4, 27.99 days
  Preliminary mean free CNP level: 7.29 pmol/L
[1]; Cohort 3, 50 μg/kg, WEEK 8, 56.00 days
  Preliminary mean free CNP level: 9.24 pmol/L
[1]; Cohort 3, 50 μg/kg, WEEK 12, 83.91 days
  Preliminary mean free CNP level: 7.62 pmol/L
[1]; Cohort 4, 100 μg/kg, WEEK 0, 0.99 days
  Preliminary mean free CNP level: 15.29 pmol/L
[1]; population PK model, weekly s.c. dosing
  half-life for free CNP: ~ 110 hours
[1]; weekly s.c. dosing
  exposure to free CNP: Sustained exposure to free CNP was observed
[2]; 100 μg/kg/week, n 5, p < 0.05 vs placebo (ANCOVA), placebo −0.19 (0.318)
  TLK Z-score (Healthy), Week 52 Change from Baseline (Mean ± SD): −1.004 (0.614)
[2]; 100 μg/kg/week, n 6, p < 0.05 vs placebo (ANCOVA), placebo −0.052 (0.242)
  TLK Z-score (ACH), Week 52 Change from Baseline (Mean ± SD): −0.416 (0.412)
[2]; 100 μg/kg/week, n 6, placebo −[…] (2.61)
  TLK, Week 52 Change from Baseline (Mean ± SD): −7.17 (4.94) degrees
[2]; [3]
  interpedicular distance (IPD): no clear effect
  pedicular width (PW): trend for patients on treatment to have an increase
[2]; Cohort 3, 50 μg/kg
  Overall Scoliosis Incidence, After 52 weeks of Treatment: 0 out of 9
  Overall Scoliosis Incidence, Baseline: 3 out of 9
[2]; Cohort 4, 100 μg/kg
  Overall Scoliosis Incidence, After 52 weeks of Treatment: 1 out of 9
  Overall Scoliosis Incidence, Baseline: 3 out of 9
[2]; cohort 4 after 52 weeks of treatment
  thoracolumbar kyphosis: statistically significant reduction
[2]; [4]
  kyphosis Cobb Angle: trend for a dose dependent reduction
  scoliosis main thoracic Cobb Angle: trend for a dose dependent reduction
[2]; phase 2 and open label extension trial
  lumbar lordosis: slight trend for an increase
[2]; single patient one, baseline
  Patient Angle, thoracic kyphosis (TK): 11.6 degrees
[2]; [5]
  L1 vertebra LW, change from baseline: Δ4.1 mm
  L1 vertebra MH, change from baseline: Δ1.4 mm
  L1 vertebra MW, change from baseline: Δ5.9 mm
  L1 vertebra PH, change from baseline: Δ1.5 mm
[2]; [6]
  L1 vertebra LW (Lower Width): 22.9 mm
  L1 vertebra MH (Middle Height): 15.0 mm
  L1 vertebra MW (Middle Width): 14.6 mm
  L1 vertebra PH (Posterior height): 15.8 mm
  L1 vertebra PH/MW: 108 mm
[2]; single patient, after 52 weeks treatment, [~80@T12/12]
  L1 vertebra PH/MW, change from baseline: Δ−56 [~80@T12/12] mm
[2]; single patient, baseline
  L1 vertebra LW (Lower Width): 18.8 mm
  L1 vertebra MH (Middle Height): 13.6 mm
  L1 vertebra MW (Middle Width): 8.7 mm
  L1 vertebra PH (Posterior height): 14.3 mm
  L1 vertebra PH/MW: 164 mm
  Patient Angle, lumbar lordosis (LL): 58.3 degrees
  Patient Angle, thoraco-lumbar kyphosis (TLK): 24.0 degrees
[2]; single patient, baseline vs 52 weeks of treatment
  apical wedging and shape of L1 vertebra on radiographs: noted decrease in apical wedging and normalization of the L1 vertebra
[2]; single patient, baseline, reference population 3 (Abousamra 2019) 20.0 ± 12.5
  Patient Z-score TK3: −0.7
[2]; single patient, baseline, reference population 3, 18.5 ± 13.2
  Patient Z-score TLK3: 0.4
[2]; single patient, baseline, reference population 3, 66.7 ± 17.5
  Patient Z-score LL3: −0.5
[2]; single patient, baseline, reference population 5.0 ± 7.2
  Patient Z-score TLK2: 2.6
[2]; single patient, baseline, reference population 31.6 ± 9.2
  Patient Z-score TK2: −2.2
[2]; single patient, baseline, reference population 44.4 ± 9.4
  Patient Z-score LL2: 1.5
[2]; [7]
  Patient Angle, lumbar lordosis (LL): 60.2 degrees
  Patient Angle, thoracic kyphosis (TK): 12.6 degrees
  Patient Angle, thoraco-lumbar kyphosis (TLK): 9.1 degrees
[2]; single patient, week 52, 100 μg/kg/week, reference 31.6 ± 9.2
  Patient Z-score TK2: −2.1
[2]; single patient, week 52, reference 5 ± 7.2
  Patient Z-score TLK2: 0.6
[2]; single patient, week 52, reference 44.4 ± 9.4
  Patient Z-score LL2: 1.7
[2]; single patient, week 52, reference population 3, 18.5 ± 12.0
  Patient Z-score TLK3: −0.6
[2]; single patient, week 52, reference population 3, 19.7 ± 13.2
  Patient Z-score TK3: −0.5
[2]; single patient, week 52, reference population 3, 66.0 ± 15.5
  Patient Z-score LL3: −0.4
